In ChEMBL document CHEMBL1201862, “PubChem BioAssay data set” (2004):
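Each compound was tested at five concentrations against cells in 96-well plates for 48 hours. Abbreviation: GI50, concentration required for 50% inhibition of growth.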 Calls of active or inactive are those of the source. No stated cut-off is given here; in the data, active = GI50 up to about 1.1 µM and inactive = higher.

Tests used:
Assay in all cases: DTP human tumour cell line panel, 48 h
786-0 = test system: 786-0
A498 = test system: A498
ACHN = test system: ACHN
CCRF-CEM = test system: CCRF-CEM
HOP-92 = test system: HOP-92
MCF7 = test system: MCF7
NCI-H460 = test system: NCI-H460
OVCAR-3 = test system: OVCAR-3
OVCAR-4 = test system: OVCAR-4
RPMI-8226 = test system: RPMI-8226
SF-295 = test system: SF-295
SK-MEL-5 = test system: SK-MEL-5
SN12C = test system: SN12C
SR = test system: SR
SW-620 = test system: SW-620
TK-10 = test system: TK-10
U-251 = test system: U-251
UACC-62 = test system: UACC-62
UO-31 = test system: UO-31
HCC 2998 = test system: HCC 2998

Compound | GI50 (786-0) | GI50 (A498) | GI50 (ACHN) | GI50 (CCRF-CEM) | GI50 (HOP-92) | GI50 (MCF7) | GI50 (NCI-H460) | GI50 (OVCAR-3) | GI50 (OVCAR-4) | GI50 (RPMI-8226) | GI50 (SF-295) | GI50 (SK-MEL-5) | GI50 (SN12C) | GI50 (SR) | GI50 (SW-620) | GI50 (TK-10) | GI50 (U-251) | GI50 (UACC-62) | GI50 (UO-31) | GI50 (HCC 2998)
CN(CC(=O)O)Cc1c(O)c(Cl)cc(Cl)c1Cl | 15.8 µM (inactive) | 46.1 µM (inactive) | 36.5 µM (inactive) | 5.13 µM (inactive) | 23.4 µM (inactive) | 17.9 µM (inactive) | 5.13 µM (inactive) | 4.07 µM (inactive) | 33.6 µM (inactive) | 37.4 µM (inactive) | 64.9 µM (inactive) | 24.7 µM (inactive) | 47 µM (inactive) | 5.55 µM (inactive) | 40.5 µM (inactive) | 37.8 µM (inactive) | 17 µM (inactive) | 23.1 µM (inactive) | 23.2 µM (inactive) | 
CC(=O)O[C@@H]1[C@H]2[C@@H](OC(=O)c3ccccc3)[C@@H](C)C[C@]2(O)[C@H](OC(C)=O)[C@@]2(C)[C@@H]3CC(C)(C)C(=O)[C@]3(OC(C)=O)C[C@@]12C | 17.1 µM (inactive) | 12.8 µM (inactive) | > 25 µM (inactive) | 1.92 µM (inactive) | 8.24 µM (inactive) | > 25 µM (inactive) | 2.06 µM (inactive) | > 25 µM (inactive) | > 25 µM (inactive) |  | 7 µM (inactive) | 18.7 µM (inactive) | > 25 µM (inactive) | 20.7 µM (inactive) | 24.3 µM (inactive) | > 25 µM (inactive) | > 25 µM (inactive) | > 25 µM (inactive) | 13.9 µM (inactive) | 6.9 µM (inactive)
O=c1nc(Oc2c(F)c(F)c(F)c(F)c2F)ccn1C1OC(CO)C(O)C1O (stereo not given) | > 100 µM (inactive) | > 100 µM (inactive) | > 100 µM (inactive) | > 100 µM (inactive) | > 100 µM (inactive) | > 100 µM (inactive) |  | 53.8 µM (inactive) | > 100 µM (inactive) | > 100 µM (inactive) | > 100 µM (inactive) | > 100 µM (inactive) | > 100 µM (inactive) | 58.1 µM (inactive) | > 100 µM (inactive) | > 100 µM (inactive) | > 100 µM (inactive) | > 100 µM (inactive) | > 100 µM (inactive) | > 100 µM (inactive)
CC(C)=CCC[C@@H](C)c1c2nc3ccccc3sc-2c(C)c(=O)c1O | 4.9 µM (inactive) | 9.84 µM (inactive) | 2.65 µM (inactive) | 2.67 µM (inactive) | 18.9 µM (inactive) | 8.3 µM (inactive) | 2.22 µM (inactive) | 9.35 µM (inactive) | 6.43 µM (inactive) | 4.11 µM (inactive) | 3.78 µM (inactive) | 3.1 µM (inactive) | 5.74 µM (inactive) | 2.23 µM (inactive) | 4.86 µM (inactive) | 12.8 µM (inactive) | 6.38 µM (inactive) | 4.99 µM (inactive) | 3.55 µM (inactive) | 9.66 µM (inactive)
COc1cc(S(=O)(=O)Nc2nc(-c3ccc(N4C(=O)/C(=C/c5ccccc5)N=C4c4ccccc4)cc3)cs2)ccc1Cl | 63.5 µM (inactive) | 31.3 µM (inactive) | > 100 µM (inactive) | 34.6 µM (inactive) | 34.4 µM (inactive) | 35.6 µM (inactive) | > 100 µM (inactive) | 11.9 µM (inactive) | 31.3 µM (inactive) |  | > 100 µM (inactive) | 26.9 µM (inactive) | 45 µM (inactive) | 36.1 µM (inactive) | 55.1 µM (inactive) | > 100 µM (inactive) | 36 µM (inactive) | 21.2 µM (inactive) | > 100 µM (inactive) | 
COC(=O)C1=C(C)NC(CF)=C(C(=O)OC)C1c1cccc2c(=O)c3ccccc3oc12 (stereo not given) | 7.38 µM (inactive) | 5.53 µM (inactive) | 15.1 µM (inactive) | 5.28 µM (inactive) | 3.88 µM (inactive) | 4.94 µM (inactive) | 4.48 µM (inactive) | 4.85 µM (inactive) | 10.2 µM (inactive) | 69.3 µM (inactive) | 3.31 µM (inactive) | 5.06 µM (inactive) | 4.63 µM (inactive) | 9.4 µM (inactive) | 1.73 µM (inactive) | 35.8 µM (inactive) |  | 10.6 µM (inactive) | 6.59 µM (inactive) | 6.59 µM (inactive)
O=C1/C(=C/c2ccc(Cl)cc2)N=C(c2ccccc2)N1c1nc2ccccc2s1 | > 100 µM (inactive) | 30.5 µM (inactive) | 62.5 µM (inactive) | 47.1 µM (inactive) | 66.4 µM (inactive) | 40.1 µM (inactive) | 57.4 µM (inactive) | 38.5 µM (inactive) | 53.1 µM (inactive) | 39.7 µM (inactive) | 40.4 µM (inactive) | 31.6 µM (inactive) |  | 0.0537 µM (active) | 64 µM (inactive) | 56.2 µM (inactive) | 42.8 µM (inactive) |  | 37.3 µM (inactive) | 42.7 µM (inactive)
O=c1n(-c2ccccc2)c(=O)n2c(-c3ccccc3)c(-c3ccccc3)n12 | 80.2 µM (inactive) | > 100 µM (inactive) | > 100 µM (inactive) | 31.4 µM (inactive) | > 100 µM (inactive) | > 100 µM (inactive) | 91 µM (inactive) | > 100 µM (inactive) | > 100 µM (inactive) |  | 84.1 µM (inactive) | > 100 µM (inactive) | > 100 µM (inactive) | 27 µM (inactive) | > 100 µM (inactive) | > 100 µM (inactive) | > 100 µM (inactive) | > 100 µM (inactive) | 66.4 µM (inactive) | 77.8 µM (inactive)
CC(=O)c1c2c(cc3c1CC1(Cc4ccccc4C1=O)C3)CCC2 (stereo not given) | 22.3 µM (inactive) | 17.5 µM (inactive) | 21.7 µM (inactive) | 16.8 µM (inactive) | 12.2 µM (inactive) | 17.1 µM (inactive) | 28.6 µM (inactive) | 15.1 µM (inactive) | 75.2 µM (inactive) | 5.66 µM (inactive) | 25.2 µM (inactive) | 10.3 µM (inactive) | 21.5 µM (inactive) | 15.3 µM (inactive) | 32.3 µM (inactive) | 20.5 µM (inactive) | 24.4 µM (inactive) |  | 21.2 µM (inactive) | 27.5 µM (inactive)
Cc1ccc(-c2nc(C)c(C(=O)Nc3ccc(Cl)cc3)s2)cc1 | 15.2 µM (inactive) | 14.3 µM (inactive) | 18.4 µM (inactive) | > 100 µM (inactive) | 23.5 µM (inactive) | > 100 µM (inactive) | 29.5 µM (inactive) | 24.1 µM (inactive) | 18.3 µM (inactive) | > 100 µM (inactive) | 15.4 µM (inactive) | 20.1 µM (inactive) | 31.4 µM (inactive) | > 100 µM (inactive) | 41.7 µM (inactive) | 20.6 µM (inactive) | 22.1 µM (inactive) | 19.6 µM (inactive) | 18.8 µM (inactive) | 
COC(=O)C1OC(O[C@H]2CC[C@]3(C)[C@H]4CC=C5[C@@H]6CC(C)(C)CC[C@]6(C(=O)OC)[C@H](O)C[C@@]5(C)[C@]4(C)CC[C@H]3C2(C)C)C(O)C(O)C1O (stereo not given in full) | 8.49 µM (inactive) | 12.6 µM (inactive) | 11.5 µM (inactive) | 3.1 µM (inactive) | 16.8 µM (inactive) | 11 µM (inactive) | 6.49 µM (inactive) | 10.4 µM (inactive) | 5.68 µM (inactive) | 4.9 µM (inactive) | 10.4 µM (inactive) | 13.4 µM (inactive) | 12.9 µM (inactive) | 3.42 µM (inactive) | 12.4 µM (inactive) |  | 11.6 µM (inactive) | 12.5 µM (inactive) | 14 µM (inactive) | 2.7 µM (inactive)
COc1ccc(S(=O)(=O)NC(CCC(=O)NN)C(=O)NN)cc1 (stereo not given) | > 100 µM (inactive) | > 100 µM (inactive) | > 100 µM (inactive) | > 100 µM (inactive) | > 100 µM (inactive) | > 100 µM (inactive) | > 100 µM (inactive) | > 100 µM (inactive) | > 100 µM (inactive) | > 100 µM (inactive) | > 100 µM (inactive) | > 100 µM (inactive) | > 100 µM (inactive) | > 100 µM (inactive) | > 100 µM (inactive) | > 100 µM (inactive) | > 100 µM (inactive) | > 100 µM (inactive) | > 100 µM (inactive) | 
C[Si](C)(OCCS(=O)(=O)O)OC(=C1S(=O)(=O)OCCOS1(=O)=O)c1cccc2ccccc12 | > 100 µM (inactive) | 98.4 µM (inactive) | > 100 µM (inactive) | > 100 µM (inactive) | > 100 µM (inactive) | 67.6 µM (inactive) | > 100 µM (inactive) | 36.5 µM (inactive) | > 100 µM (inactive) | > 100 µM (inactive) | > 100 µM (inactive) | > 100 µM (inactive) | > 100 µM (inactive) | > 100 µM (inactive) | > 100 µM (inactive) | > 100 µM (inactive) | > 100 µM (inactive) |  | > 100 µM (inactive) | 90.6 µM (inactive)
CC(C)(C)OC(=O)N(CCCN)CCCCN(CCCN)C(=O)OC(C)(C)C | > 100 µM (inactive) | > 100 µM (inactive) | > 100 µM (inactive) | > 100 µM (inactive) | > 100 µM (inactive) | > 100 µM (inactive) | > 100 µM (inactive) | > 100 µM (inactive) | > 100 µM (inactive) | > 100 µM (inactive) | > 100 µM (inactive) | > 100 µM (inactive) |  | > 100 µM (inactive) | > 100 µM (inactive) | > 100 µM (inactive) | > 100 µM (inactive) | > 100 µM (inactive) | > 100 µM (inactive) | > 100 µM (inactive)
